From ChEMBL document CHEMBL5696439 (Cancer Res, 2010)
pIC50: −log10 of the molar value. Active and inactive are the calls of the source. The calls are words filed in the database; no cut-off is given here.

How the values were obtained:
[1] = molecular target: Tyrosine-protein kinase Yes (Homo sapiens) (UniProt P07947); experiment: Inhibition of recombinant human full length GST-tagged YES1 expressed in insect cells at 2 uM using Ser/Thr 07 as substrate measured after 1 hr by Z'-LYTE assay relative to control; details: Insect cell
[2] = molecular target: Homeodomain-interacting protein kinase 1 (Homo sapiens) (UniProt Q86Z02); experiment: Inhibition of recombinant human GST-tagged HIPK1 (158-555 residues) expressed in insect cells at 2 uM using Ser/Thr 09 as substrate measured after 1 hr by Z'-LYTE assay relative to control; details: Insect cell
Sequence of Homeodomain-interacting protein kinase 1 (Homo sapiens) (Q86Z02 whole entry, looked up, the tested form may be a part): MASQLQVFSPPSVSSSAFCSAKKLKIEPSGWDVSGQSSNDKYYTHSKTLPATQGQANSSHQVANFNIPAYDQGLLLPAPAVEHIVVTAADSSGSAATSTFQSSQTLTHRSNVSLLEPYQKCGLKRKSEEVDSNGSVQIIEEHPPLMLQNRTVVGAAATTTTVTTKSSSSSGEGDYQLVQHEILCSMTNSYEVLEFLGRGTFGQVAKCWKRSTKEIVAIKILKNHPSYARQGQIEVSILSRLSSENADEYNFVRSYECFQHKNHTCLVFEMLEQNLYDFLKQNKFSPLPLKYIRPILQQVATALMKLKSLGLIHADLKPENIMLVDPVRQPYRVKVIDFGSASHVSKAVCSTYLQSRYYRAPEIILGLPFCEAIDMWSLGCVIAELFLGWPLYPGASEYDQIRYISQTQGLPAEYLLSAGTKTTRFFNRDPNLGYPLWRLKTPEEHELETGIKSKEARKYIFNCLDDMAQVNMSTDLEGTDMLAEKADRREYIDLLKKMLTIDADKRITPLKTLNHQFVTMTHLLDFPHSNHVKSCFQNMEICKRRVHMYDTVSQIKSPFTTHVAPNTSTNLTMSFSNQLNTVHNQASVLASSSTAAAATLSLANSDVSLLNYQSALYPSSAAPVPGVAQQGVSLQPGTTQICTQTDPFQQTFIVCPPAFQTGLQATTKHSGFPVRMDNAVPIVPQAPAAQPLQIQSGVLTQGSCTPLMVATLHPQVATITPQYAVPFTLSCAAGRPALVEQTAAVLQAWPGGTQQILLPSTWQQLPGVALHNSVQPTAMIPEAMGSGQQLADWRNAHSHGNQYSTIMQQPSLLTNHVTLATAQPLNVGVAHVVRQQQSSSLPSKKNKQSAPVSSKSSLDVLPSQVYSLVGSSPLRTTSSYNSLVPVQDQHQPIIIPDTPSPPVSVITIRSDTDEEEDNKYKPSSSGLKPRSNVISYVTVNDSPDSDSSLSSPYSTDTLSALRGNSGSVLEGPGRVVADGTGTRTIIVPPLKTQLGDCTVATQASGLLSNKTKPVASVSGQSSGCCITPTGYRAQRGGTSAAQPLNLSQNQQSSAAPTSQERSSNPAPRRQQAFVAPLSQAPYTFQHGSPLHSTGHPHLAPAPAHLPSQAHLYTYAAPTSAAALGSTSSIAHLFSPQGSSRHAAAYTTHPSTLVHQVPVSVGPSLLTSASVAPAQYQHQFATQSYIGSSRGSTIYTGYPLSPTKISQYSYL

[3] = molecular target: Cyclin-dependent kinase 5/CDK5 activator 1 (Homo sapiens) (UniProt Q00535+Q15078); experiment: Inhibition of recombinant human full-length GST/His-tagged CDK5/p25 expressed in insect cells at 2 uM using Ser/Thr 12 as substrate measured after 1 hr by Z'-LYTE assay relative to control; details: Insect cell
[4] = molecular target: Platelet-derived growth factor receptor beta (Homo sapiens) (UniProt P09619); experiment: Inhibition of recombinant human His-tagged PDGFRB (558-1106 residues) expressed in baculovirus expression system at 2 uM using Tyr 04 as substrate measured after 1 hr by Z'-LYTE assay relative to control
Sequence of Platelet-derived growth factor receptor beta (Homo sapiens) (P09619 whole entry, the tested form may be a part): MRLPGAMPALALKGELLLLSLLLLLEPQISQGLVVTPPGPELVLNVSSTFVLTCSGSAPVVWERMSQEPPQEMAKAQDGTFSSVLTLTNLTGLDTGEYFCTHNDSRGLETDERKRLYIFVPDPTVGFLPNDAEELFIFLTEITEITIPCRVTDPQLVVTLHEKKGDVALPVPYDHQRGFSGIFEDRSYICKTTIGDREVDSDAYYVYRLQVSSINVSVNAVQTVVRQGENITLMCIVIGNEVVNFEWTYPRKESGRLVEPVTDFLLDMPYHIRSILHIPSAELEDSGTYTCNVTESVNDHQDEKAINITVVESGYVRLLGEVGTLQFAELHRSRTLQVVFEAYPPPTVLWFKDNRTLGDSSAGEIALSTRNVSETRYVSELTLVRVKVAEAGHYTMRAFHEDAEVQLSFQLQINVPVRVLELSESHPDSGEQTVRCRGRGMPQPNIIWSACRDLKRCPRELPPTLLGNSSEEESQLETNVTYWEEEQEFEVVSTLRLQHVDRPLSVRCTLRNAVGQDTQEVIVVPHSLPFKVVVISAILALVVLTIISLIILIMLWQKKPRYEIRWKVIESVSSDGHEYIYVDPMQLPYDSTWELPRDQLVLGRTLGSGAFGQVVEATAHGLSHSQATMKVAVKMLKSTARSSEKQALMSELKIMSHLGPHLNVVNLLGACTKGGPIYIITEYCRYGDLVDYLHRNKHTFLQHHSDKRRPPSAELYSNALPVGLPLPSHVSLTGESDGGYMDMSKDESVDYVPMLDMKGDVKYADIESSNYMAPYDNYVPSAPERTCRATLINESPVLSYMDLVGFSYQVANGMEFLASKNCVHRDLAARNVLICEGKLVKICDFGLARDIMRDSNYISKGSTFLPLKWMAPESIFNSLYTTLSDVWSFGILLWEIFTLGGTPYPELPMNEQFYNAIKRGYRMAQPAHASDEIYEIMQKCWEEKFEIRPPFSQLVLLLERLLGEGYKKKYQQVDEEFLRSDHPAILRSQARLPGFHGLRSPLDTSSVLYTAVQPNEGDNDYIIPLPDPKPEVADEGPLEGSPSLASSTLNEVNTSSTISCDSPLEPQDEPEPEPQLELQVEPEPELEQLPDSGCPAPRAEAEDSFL

[5] = system: Platelet-derived growth factor receptor alpha (Homo sapiens), P16234 [V561D]; experiment: Inhibition of recombinant human GST-tagged PDGFRA V561D mutant (550-1089 residues) expressed in insect cells at 2 uM using Tyr 04 as substrate measured after 1 hr by Z'-LYTE assay relative to control; details: Insect cell
U-87 MG [6] = experiment: Induction of apoptosis in human U-87MG cells assessed as increase in G1 phase at 1 micromol/L incubated for 24 hrs by FACS analysis; type: functional, cell-based; details: U-87MG ATCC, dose 1.0 µmol/L
[7] = molecular target: BDNF/NT-3 growth factors receptor (Homo sapiens) (UniProt Q16620); experiment: Inhibition of recombinant human His-tagged NTRK2 (526-838 residues) expressed in insect cells at 2 uM using Tyr 01 as substrate measured after 1 hr by Z'-LYTE assay relative to control; details: Insect cell
Sequence of BDNF/NT-3 growth factors receptor (Homo sapiens) (Q16620 32-822 limits assumed): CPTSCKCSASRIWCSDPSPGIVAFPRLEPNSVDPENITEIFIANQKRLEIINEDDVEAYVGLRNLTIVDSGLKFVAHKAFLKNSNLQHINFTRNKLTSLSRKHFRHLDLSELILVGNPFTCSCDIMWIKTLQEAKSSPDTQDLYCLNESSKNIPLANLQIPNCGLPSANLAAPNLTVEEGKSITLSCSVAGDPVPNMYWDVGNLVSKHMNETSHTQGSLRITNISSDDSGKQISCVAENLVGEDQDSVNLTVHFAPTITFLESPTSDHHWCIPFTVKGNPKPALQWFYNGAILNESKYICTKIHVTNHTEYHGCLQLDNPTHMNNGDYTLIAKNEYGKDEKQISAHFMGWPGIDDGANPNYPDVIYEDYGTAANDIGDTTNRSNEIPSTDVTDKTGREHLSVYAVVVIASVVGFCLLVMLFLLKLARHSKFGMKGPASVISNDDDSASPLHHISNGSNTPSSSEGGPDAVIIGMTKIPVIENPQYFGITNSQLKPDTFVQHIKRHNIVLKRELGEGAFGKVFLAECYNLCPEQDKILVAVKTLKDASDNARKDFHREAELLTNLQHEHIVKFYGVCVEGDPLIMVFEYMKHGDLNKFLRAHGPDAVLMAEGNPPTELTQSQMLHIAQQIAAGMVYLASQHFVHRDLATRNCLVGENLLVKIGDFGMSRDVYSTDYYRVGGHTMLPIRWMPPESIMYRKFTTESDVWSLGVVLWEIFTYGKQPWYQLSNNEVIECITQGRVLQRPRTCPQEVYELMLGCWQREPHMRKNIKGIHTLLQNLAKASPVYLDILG

MDA-MB-361 [8] = experiment: Antiproliferative activity against human MDA-MB-361 cells assessed as cell growth inhibition at 10 micromol/L incubated for 3 days by MTS assay relative to control; type: functional; details: MDA-MB-361, 72 h, dose 10 µmol/L, time 3 day
[9] = molecular target: Serine/threonine-protein kinase mTOR (Homo sapiens, UniProt P42345); details: HEK293, dose 0.1-1 nM, time 20.0 min
[10] = molecular target: Casein kinase II subunit alpha' (Homo sapiens) (UniProt P19784); experiment: Inhibition of recombinant human full-length GST-tagged CSNK2A2 expressed in insect cells at 2 uM using Ser/Thr 11 as substrate measured after 1 hr by Z'-LYTE assay relative to control; details: Insect cell
Sequence of Casein kinase II subunit alpha' (Homo sapiens) (P19784 whole entry, looked up): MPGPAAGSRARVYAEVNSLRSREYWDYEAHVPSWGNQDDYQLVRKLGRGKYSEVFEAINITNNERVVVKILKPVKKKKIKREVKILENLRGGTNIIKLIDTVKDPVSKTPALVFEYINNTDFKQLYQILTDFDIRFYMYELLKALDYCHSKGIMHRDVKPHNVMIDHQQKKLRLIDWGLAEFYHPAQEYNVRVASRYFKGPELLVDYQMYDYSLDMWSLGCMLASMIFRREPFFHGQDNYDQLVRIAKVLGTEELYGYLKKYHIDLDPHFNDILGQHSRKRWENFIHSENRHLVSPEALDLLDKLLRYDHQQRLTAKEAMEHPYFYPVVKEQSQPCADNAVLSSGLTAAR

NCI-H1975 = experiment: Antitumor activity against human NCI-H1975 cells xenografted in female nude mouse model assessed as survival at 10 mg/kg, po qd administered as 5 days on/2 days off regimen for 4 cycles; type: functional, organism-based; details: time 28.0 day
[11] = molecular target: Ribosomal protein S6 kinase alpha-3 (Homo sapiens) (UniProt P51812); experiment: Inhibition of recombinant human full length His-tagged RPS6KA3 expressed in baculovirus expression system at 2 uM using Ser/Thr 06 as substrate measured after 1 hr by Z'-LYTE assay relative to control
Sequence of Ribosomal protein S6 kinase alpha-3 (Homo sapiens) (P51812 whole entry): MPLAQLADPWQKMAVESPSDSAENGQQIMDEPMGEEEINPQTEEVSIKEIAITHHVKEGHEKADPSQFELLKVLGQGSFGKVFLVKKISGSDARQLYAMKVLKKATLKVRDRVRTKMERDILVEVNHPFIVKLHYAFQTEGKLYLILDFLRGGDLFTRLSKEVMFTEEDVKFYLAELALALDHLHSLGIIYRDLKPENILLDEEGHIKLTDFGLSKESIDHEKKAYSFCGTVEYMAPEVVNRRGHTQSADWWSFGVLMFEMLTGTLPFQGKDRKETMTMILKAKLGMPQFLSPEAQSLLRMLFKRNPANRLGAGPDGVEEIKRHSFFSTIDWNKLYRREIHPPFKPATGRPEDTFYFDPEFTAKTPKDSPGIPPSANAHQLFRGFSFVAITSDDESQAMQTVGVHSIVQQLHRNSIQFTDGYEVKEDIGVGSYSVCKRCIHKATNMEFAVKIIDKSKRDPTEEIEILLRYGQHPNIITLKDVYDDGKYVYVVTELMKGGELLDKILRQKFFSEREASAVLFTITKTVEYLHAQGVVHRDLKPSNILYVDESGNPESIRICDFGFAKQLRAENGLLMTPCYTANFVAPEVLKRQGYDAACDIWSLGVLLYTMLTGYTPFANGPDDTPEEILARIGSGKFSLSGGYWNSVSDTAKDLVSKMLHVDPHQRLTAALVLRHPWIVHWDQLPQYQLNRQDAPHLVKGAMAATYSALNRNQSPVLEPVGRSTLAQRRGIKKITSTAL

A498 = experiment: Antitumor activity against human A498 cells xenografted in female nude mouse model assessed as tumor regression at 50 mg/kg, po qd administered as 5 days on/2 days off regimen for 4 cycles; type: functional, organism-based; details: time 28.0 day
[12] = molecular target: Aurora kinase C (Homo sapiens) (UniProt Q9UQB9); experiment: Inhibition of recombinant human full-length GST-tagged AURKC expressed in insect cells at 2 uM using Ser/Thr 19 as substrate measured after 1 hr by Z'-LYTE assay relative to control; details: Insect cell
Sequence of Aurora kinase C (Homo sapiens) (Q9UQB9 whole entry): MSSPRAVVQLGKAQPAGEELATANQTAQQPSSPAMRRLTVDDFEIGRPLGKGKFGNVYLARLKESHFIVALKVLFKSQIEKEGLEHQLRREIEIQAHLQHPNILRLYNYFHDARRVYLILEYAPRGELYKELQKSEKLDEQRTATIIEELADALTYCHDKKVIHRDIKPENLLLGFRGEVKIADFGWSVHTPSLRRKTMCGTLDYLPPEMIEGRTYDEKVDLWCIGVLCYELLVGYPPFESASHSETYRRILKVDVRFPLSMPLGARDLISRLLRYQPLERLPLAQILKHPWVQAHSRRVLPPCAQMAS

[13] = molecular target: Casein kinase II subunit alpha (Homo sapiens) (UniProt P68400); experiment: Inhibition of recombinant human full-length His-tagged CSNK2A1 expressed in baculovirus expression system at 2 uM using Ser/Thr 11 as substrate measured after 1 hr by Z'-LYTE assay relative to control
[14] = molecular target: Tyrosine-protein kinase HCK (Homo sapiens) (UniProt P08631); experiment: Inhibition of recombinant human full-length GST-tagged HCK expressed in insect cells at 2 uM using Tyr 02 as substrate measured after 1 hr by Z'-LYTE assay relative to control; details: Insect cell
[15] = molecular target: Serine/threonine-protein kinase N1 (Homo sapiens) (UniProt Q16512); experiment: Inhibition of recombinant human full length GST-tagged PKN1 expressed in insect cells at 2 uM using Ser/Thr 07 as substrate measured after 1 hr by Z'-LYTE assay relative to control; details: Insect cell
mTORC2 (Homo sapiens) = mTORC2 (Homo sapiens) (UniProt P42345+Q6R327+Q9BVC4+Q9BPZ7); details: PC3MM2, dose 0.1-1 µM, time 6.0 hrs
[16] = molecular target: Proto-oncogene tyrosine-protein kinase Src (Homo sapiens) (UniProt P12931); experiment: Inhibition of recombinant human full length His-tagged SRC expressed in insect cells at 2 uM using Tyr 02 as substrate measured after 1 hr by Z'-LYTE assay relative to control; details: Insect cell
Sequence of Proto-oncogene tyrosine-protein kinase Src (Homo sapiens) (P12931 2-536 limits assumed): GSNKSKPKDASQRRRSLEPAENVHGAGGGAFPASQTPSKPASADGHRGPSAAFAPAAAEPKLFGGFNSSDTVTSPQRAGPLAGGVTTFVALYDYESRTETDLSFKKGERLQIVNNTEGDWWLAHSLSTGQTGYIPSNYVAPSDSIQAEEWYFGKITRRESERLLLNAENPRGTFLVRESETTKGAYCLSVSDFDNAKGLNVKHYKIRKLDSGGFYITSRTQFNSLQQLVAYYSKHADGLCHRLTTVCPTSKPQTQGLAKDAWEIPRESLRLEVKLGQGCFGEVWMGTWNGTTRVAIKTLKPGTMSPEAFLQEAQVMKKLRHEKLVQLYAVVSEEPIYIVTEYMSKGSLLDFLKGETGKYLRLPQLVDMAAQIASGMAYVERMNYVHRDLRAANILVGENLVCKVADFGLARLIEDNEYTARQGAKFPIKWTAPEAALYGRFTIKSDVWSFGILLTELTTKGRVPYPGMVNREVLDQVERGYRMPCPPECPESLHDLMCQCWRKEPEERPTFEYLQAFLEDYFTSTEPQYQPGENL

[17] = molecular target: Tyrosine-protein kinase JAK2 (Homo sapiens) (UniProt O60674); experiment: Inhibition of recombinant human GST-tagged JAK2 JH1 JH2 domains (532-1132 residues) expressed in insect cells at 2 uM using Tyr 06 as substrate measured after 1 hr by Z'-LYTE assay relative to control; details: Insect cell
[18] = molecular target: Tyrosine-protein kinase receptor TYRO3 (Homo sapiens) (UniProt Q06418); experiment: Inhibition of recombinant human GST-tagged TYRO3 (451-890 residues) expressed in insect cells at 2 uM using […] as substrate measured after 1 hr by Z'-LYTE assay relative to control; details: Insect cell
MDA-MB-361 [19] = experiment: Induction of apoptosis in HER2 hyperactive human MDA-MB-361 cells assessed as cell death at 0.001 to 100 micromol/L incubated for 24 hrs by FACS analysis; type: functional, cell-based; details: dose 0.001-100 µmol/L
[20] = molecular target: Tyrosine-protein kinase BTK (Homo sapiens) (UniProt Q06187); experiment: Inhibition of recombinant human full-length His-tagged BTK expressed in insect cells at 2 uM using Tyr 01 as substrate measured after 1 hr by Z'-LYTE assay relative to control; details: Insect cell
[21] = molecular target: Serine/threonine-protein kinase 26 (Homo sapiens) (UniProt Q9P289); experiment: Inhibition of recombinant human full length GST-tagged MST4 expressed in insect cells at 2 uM using Ser/Thr 07 as substrate measured after 1 hr by Z'-LYTE assay relative to control; details: Insect cell
MDA-MB-361 [22] = experiment: Antitumor activity against human MDA-MB-361 cells xenografted in female nude mouse model assessed as suppression in P-AKT at S473 level at 50 mg/kg, iv administered once a week and measured at least 8 hrs by immunoblot analysis; type: functional, organism-based
U-87 MG [23] = experiment: Antiproliferative activity against human U-87MG cells assessed as cell growth inhibition incubated for 24 hrs by MTS assay; type: functional, cell-based, U-87MG ATCC

Compound `CNC(=O)Nc1ccc(-c2nc(N3CC4CCC(C3)O4)c3cnn(C4CCC5(CC4)OCCO5)c3n2)cc1` has an inhibition [1] of 2%, an inhibition [2] of 1% and an inhibition [3] of 1%. For the same compound, the inhibition [4] was 2%, the inhibition [5] was 3% and the Activity (U-87 MG [6]) was “Active”. The inhibition [7] was 1%, the inhibition at 10 µM (MDA-MB-361 [8]) was 100% and the inhibition [9] was “Active”. The inhibition [10] was 3%, the Activity (NCI-H1975) was “Active” and the inhibition [11] was -2%. For the same compound, the Activity (A498) was “Active”, the inhibition [12] was 4% and the inhibition [13] was 0%. The inhibition [14] was 5%, the inhibition [15] was 14% and the inhibition (mTORC2 (Homo sapiens)) was “Active”. It also gave an inhibition [16] of 3%, an inhibition [17] of 2% and an inhibition [18] of 9%. The Activity (MDA-MB-361 [19]) was “Active”, the inhibition [20] was 3% and the inhibition [21] was 7%. For the same compound, the Activity (MDA-MB-361 [22]) was “Active” and the pIC50 (U-87 MG [23]) was 7.19.
